In ChEMBL document CHEMBL4483862, “Open-source discovery of chemical leads for next-generation chemoprotective antimalarials” (2018):

Tested on: Plasmodium berghei
Test: Luciferase/luciferin-expressing antifolate-resistant parasites were used to infect a culture of HepG2 cells that were pre-incubated with compounds. Infected hepatocytes emit light due to the luciferase reaction. Assay results are presented as the percent inhibition of light emission compared to control. […]
Type: functional
Conditions: sporozoite; for IC90: read-out: LUCIFERASE INFECTION ASSAY - IC90
[1] = read-out: LUCIFERASE INFECTION ASSAY - IC50

Compound | IC90 [µM] | also measured
N#Cc1c(N2CCCC(O)C2)nc(N)c2c(N)nc3c(c12)CC(=O)N3C12CC3CC(CC(C3)C1)C2 (stereo not given) | > 10 | IC50 (HEPG2TOX_HILL_SLOPE 8.91, HEPG2TOX_R_SQUARED 0.422, PBLUC_HILL_SLOPE 4.43, PBLUC_R_SQUARED 0.134, read-out: LUCIFERASE INFECTION ASSAY - IC50): 6.8 µM
CCOc1ccc(C(C)NC(=O)c2nc(SC)ncc2Cl)cc1 (stereo not given) | 4.29 | IC50 (HEPG2TOX_HILL_SLOPE 16.5, HEPG2TOX_R_SQUARED 0.52, PBLUC_HILL_SLOPE 11.3, PBLUC_R_SQUARED 0.138, read-out: LUCIFERASE INFECTION ASSAY - IC50): 3.53 µM
CCOc1ccc(CCC2CCN(C(=O)Cn3c(=O)[nH]c(=O)c4ccccc43)CC2)cc1 | > 10 | IC50 (HEPG2TOX_HILL_SLOPE 1.65, HEPG2TOX_R_SQUARED 0.957, PBLUC_HILL_SLOPE 2.43, PBLUC_R_SQUARED 0.244, read-out: LUCIFERASE INFECTION ASSAY - IC50): 5.37 µM
CCN1N=C(c2ccc(OC)cc2)c2ccc(OC)c3cccc1c23 | 8.69 | IC50 (FFLUC_HILL_SLOPE 16.1, FFLUC_R_SQUARED 0.71, HEPG2TOX_HILL_SLOPE 5.83, HEPG2TOX_R_SQUARED 0.386, PBLUC_HILL_SLOPE 3.16, PBLUC_R_SQUARED 0.408, read-out: LUCIFERASE INFECTION ASSAY - IC50): 4.33 µM
Cn1nnnc1Sc1ncnc2sc3c(c12)CCCC3 | > 10 | IC50 [1]: > 10 µM
Cn1ccc2cc(-c3cn4c(-c5ccc(Cl)cc5)cnc4cn3)ccc21 | 0.448 | IC50 [1]: 0.247 µM
CC(C)(C)OC(=O)N[C@@H](Cc1ccccc1)c1n[nH]c(=S)n1CC1CCCO1 (stereo not given in full) | > 8.16 | IC50 [1]: > 8.16 µM
COCC(C)n1c(C)cc(C(=O)CN2C(=O)c3ccccc3S2(=O)=O)c1C (stereo not given) | > 10 | IC50 (FFLUC_HILL_SLOPE 1.61, FFLUC_R_SQUARED 0.328, read-out: LUCIFERASE INFECTION ASSAY - IC50): > 10 µM
Cc1nn2c(=O)c(Cc3ccccc3)c(C)[nH]c2c1-c1ccc(F)cc1 | 1.3 | IC50 (HEPG2TOX_HILL_SLOPE 0.716, HEPG2TOX_R_SQUARED 0.984, PBLUC_HILL_SLOPE 2.69, PBLUC_R_SQUARED 0.765, read-out: LUCIFERASE INFECTION ASSAY - IC50): 0.576 µM
CCOc1ccc(C(C)=O)cc1Cn1cnc2c(cnn2-c2ccccc2)c1=O | > 10 | IC50 (FFLUC_HILL_SLOPE 11.6, FFLUC_R_SQUARED 0.166, HEPG2TOX_HILL_SLOPE 1.94, HEPG2TOX_R_SQUARED 0.895, read-out: LUCIFERASE INFECTION ASSAY - IC50): > 10 µM
CCc1sc2nc(SCC(=O)NC(C)(C#N)C(C)C)n(Cc3ccc(C)cc3)c(=O)c2c1C (stereo not given) | > 10 | IC50 (FFLUC_HILL_SLOPE 10, FFLUC_R_SQUARED 0.698, read-out: LUCIFERASE INFECTION ASSAY - IC50): > 10 µM
Cc1ccc(C(C)C)c(OCc2ccc(C(=O)N/N=C/c3cc(C)n(Cc4ccco4)c3C)cc2)c1 | > 10 | IC50 [1]: > 10 µM
Cc1ccc(CSc2nnc(-c3ccccc3N)c(O)n2)cc1 | > 10.2 | IC50 [1]: > 10.2 µM
OC1(c2ccc(OC(F)F)cc2)CN(c2ccc(Br)cc2)C2=[N+]1c1ccccc1CC2 (stereo not given) | > 10 | IC50 (FFLUC_HILL_SLOPE 1.23, FFLUC_R_SQUARED 0.743, PBLUC_HILL_SLOPE 152, PBLUC_R_SQUARED 0.276, read-out: LUCIFERASE INFECTION ASSAY - IC50): 9.94 µM
Nc1nccc(/C=C/c2c(F)cccc2Cl)n1 | > 13.2 | IC50 (HEPG2TOX_HILL_SLOPE 2, HEPG2TOX_R_SQUARED 0.972, PBLUC_HILL_SLOPE 2.11, PBLUC_R_SQUARED 0.172, read-out: LUCIFERASE INFECTION ASSAY - IC50): 8.94 µM
Cc1ccc(-n2c(SCc3nc4ccccc4c(=O)o3)nnc2-c2ccccc2)cc1C | > 10 | IC50 [1]: > 10 µM
CCC(C)(C)c1ccc(OCC(=O)Nc2ccc(Cl)c(N)c2)c(C(C)(C)CC)c1 | 3.07 | IC50 (FFLUC_HILL_SLOPE 11.8, FFLUC_R_SQUARED 0.0263, PBLUC_HILL_SLOPE 15.2, PBLUC_R_SQUARED 0.794, read-out: LUCIFERASE INFECTION ASSAY - IC50): 2.66 µM
O=C(Nc1ccc2nc(Cc3ccccc3)nn2c1)Nc1cccs1 | > 3.33 | IC50 (PBLUC_HILL_SLOPE 0.558, PBLUC_R_SQUARED 0.579, read-out: LUCIFERASE INFECTION ASSAY - IC50): 0.969 µM
CCOc1ccc(S(=O)(=O)CC2=NCCc3cc(OC)c(OC)cc32)cc1 | 5.39 | IC50 (HEPG2TOX_HILL_SLOPE 1.55, HEPG2TOX_R_SQUARED 0.854, PBLUC_HILL_SLOPE 1.98, PBLUC_R_SQUARED 0.428, read-out: LUCIFERASE INFECTION ASSAY - IC50): 1.78 µM
CC(C)CN1CCC1(C(=O)NCc1cccc2ccccc12)c1ccccc1 (stereo not given) | > 8.86 | IC50 (HEPG2TOX_HILL_SLOPE 0.125, HEPG2TOX_R_SQUARED 0.379, PBLUC_HILL_SLOPE 1.82, PBLUC_R_SQUARED 0.397, read-out: LUCIFERASE INFECTION ASSAY - IC50): 5.57 µM

Compound | IC90 [µM] | also measured
N#C/C(=N\Nc1ccccc1Cl)S(=O)(=O)c1ccc(Cl)cc1 | 4.8 | IC50 (HEPG2TOX_HILL_SLOPE 2.02, HEPG2TOX_R_SQUARED 0.971, PBLUC_HILL_SLOPE 7.31, PBLUC_R_SQUARED 0.396, read-out: LUCIFERASE INFECTION ASSAY - IC50): 3.55 µM
O=[N+]([O-])c1cccc(-c2csc(CS(=O)(=O)c3cccs3)n2)c1 | > 9.01 | IC50 [1]: > 9.01 µM
CCc1ccc(CN(C)CC(O)COc2cccc3ccccc23)cc1 (stereo not given) | > 10 | IC50 [1]: > 10 µM
Cc1ccc(OCC(=O)Nc2cc(NC(=O)c3ccco3)ccc2C)c(C)c1 | 8.08 | IC50 (PBLUC_HILL_SLOPE 1.36, PBLUC_R_SQUARED 0.771, read-out: LUCIFERASE INFECTION ASSAY - IC50): 1.61 µM
O=C(COc1ccccc1)N1CCc2nc(NCc3cccc(Oc4ccccc4)c3)ncc2C1 | > 7.07 | IC50 [1]: > 7.07 µM
Cn1cc(CN2CCc3c(c(C(=O)NCc4nccs4)nn3Cc3ccccc3)C2)c2ccccc21 | 5.73 | IC50 (HEPG2TOX_HILL_SLOPE 6.66, HEPG2TOX_R_SQUARED 0.254, PBLUC_HILL_SLOPE 4.38, PBLUC_R_SQUARED 0.819, read-out: LUCIFERASE INFECTION ASSAY - IC50): 3.47 µM
Oc1cc(C(F)(F)F)nc2ccc(F)cc12 | > 14.3 | IC50 (PBLUC_HILL_SLOPE 1.66, PBLUC_R_SQUARED 0.446, read-out: LUCIFERASE INFECTION ASSAY - IC50): 6.54 µM
CCC(=O)Nc1ccc(CNC(=O)N2CCN(c3ccccc3C)CC2)cc1 | 1.73 | IC50 (PBLUC_HILL_SLOPE 9.1, PBLUC_R_SQUARED 0.639, read-out: LUCIFERASE INFECTION ASSAY - IC50): 1.36 µM
O=C(/C=C/c1ccco1)Nc1ccc(Cl)c(Cl)c1 | 11.3 | IC50 (HEPG2TOX_HILL_SLOPE 2.91, HEPG2TOX_R_SQUARED 0.987, PBLUC_HILL_SLOPE 6.61, PBLUC_R_SQUARED 0.512, read-out: LUCIFERASE INFECTION ASSAY - IC50): 8.1 µM
Cc1ccc(-c2nnc(SCC(=O)Nc3ccccc3C(=O)NCc3ccccc3)[nH]2)cc1 | > 10 | IC50 [1]: > 10 µM
CCCCNC(=O)c1c(NC(=O)c2cc(F)cc(F)c2)nc2ccccn12 | 1.17 | IC50 (FFLUC_HILL_SLOPE 9.87, FFLUC_R_SQUARED 0.392, HEPG2TOX_HILL_SLOPE 0.611, HEPG2TOX_R_SQUARED 0.894, PBLUC_HILL_SLOPE 4.02, PBLUC_R_SQUARED 0.616, read-out: LUCIFERASE INFECTION ASSAY - IC50): 0.679 µM
CC(C(=O)Nc1cccc(C#N)c1)N1CCN(c2ncccn2)CC1 (stereo not given) | > 10 | IC50 [1]: > 10 µM
CC(=O)Nc1cccc(Nc2nccc3[nH]c(-c4ccccc4)cc23)c1 | 0.748 | IC50 (HEPG2TOX_HILL_SLOPE 1.53, HEPG2TOX_R_SQUARED 0.824, PBLUC_HILL_SLOPE 2.66, PBLUC_R_SQUARED 0.657, read-out: LUCIFERASE INFECTION ASSAY - IC50): 0.328 µM
COC(=O)c1cc(CSc2nc3ccccc3c(=O)n2-c2ccc(OC)cc2)oc1C | > 10 | IC50 (PBLUC_HILL_SLOPE 8.32, PBLUC_R_SQUARED 0.0862, read-out: LUCIFERASE INFECTION ASSAY - IC50): > 10 µM
Cn1nnnc1SCC(=O)Nc1ccc(C(=O)Nc2ncccc2O)cc1 | 6.88 | IC50 (PBLUC_HILL_SLOPE 1.53, PBLUC_R_SQUARED 0.512, read-out: LUCIFERASE INFECTION ASSAY - IC50): 1.64 µM
CC(=O)c1ccc(NC(=O)CCn2nnc(-c3ccc(C(C)C)cc3)n2)cc1 | > 10 | IC50 (PBLUC_HILL_SLOPE 1, PBLUC_R_SQUARED 0.439, read-out: LUCIFERASE INFECTION ASSAY - IC50): 6.32 µM
CN(CCCc1[nH]nc(N)c1C#N)c1nc(-c2ccccn2)nc2sc(-c3ccccc3)cc12 | > 10 | IC50 (PBLUC_HILL_SLOPE 13.8, PBLUC_R_SQUARED 0.648, read-out: LUCIFERASE INFECTION ASSAY - IC50): 8.54 µM
Cc1nc2ccc(NC(=O)c3ccc4[nH]c(C)c(C)c4c3)cc2s1 | > 9.84 | IC50 (PBLUC_HILL_SLOPE 1.58, PBLUC_R_SQUARED 0.399, read-out: LUCIFERASE INFECTION ASSAY - IC50): > 9.84 µM
COc1cccc(-c2[nH]nc3ccnc(-c4ccc(C(C)C)cc4)c23)c1 | > 10 | IC50 (FFLUC_HILL_SLOPE 13.2, FFLUC_R_SQUARED 0.418, read-out: LUCIFERASE INFECTION ASSAY - IC50): > 10 µM
COC(=O)c1sc(S(C)(=O)=O)c(C#N)c1-c1cccs1 | 5.13 | IC50 (HEPG2TOX_HILL_SLOPE 11.8, HEPG2TOX_R_SQUARED 0.984, PBLUC_HILL_SLOPE 123, PBLUC_R_SQUARED 0.486, read-out: LUCIFERASE INFECTION ASSAY - IC50): 5.04 µM
